Patent US12344610B2, “APOL1 inhibitors and methods of use” (Maze Therapeutics, Inc., priority 2022, dated 2025)

Key:
Assay type in all cases: cell-based
[1] = system: Trypanosoma brucei Lister 427 VSG221 with APOL1 G0 recombinant protein; test: APOL1 G0 trypanosome cell rescue assay (Example B5); details: Trypanosoma brucei, 20 h, read-out: APOL1 G0 Trypanosome Rescue EC50, Trypanosoma brucei Lister 427 VSG221 with APOL1 G0 recombinant protein, 20 hours, CellTiter-Glo; geometric mean of at least 2 assay runs; † = single assay run
In short: (§1)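 Compounds in duplicate 2-fold, 11-point series with 0.4% DMSO final. Next, tag-free mature APOL1 variant protein went in from a 2 μg/mL solution, then trypanosomes to 250 per well. Plates incubated 20 h humidified at 37° C, equilibrated to room temperature, and CellTiter-Glo added for luminescence.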

[2] = system: HEK293 clonal cell line overexpressing APOL1 G1; test: APOL1 G1 HEK293 cell rescue assay (Example B3); details: Homo sapiens, HEK293, HEK293 clonal line overexpressing APOL1 G1; geometric mean of at least 2 runs; † = single run; ¥ = concentration at 50% rescue estimated (no sigmoidal curve)
In short: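 HEK293 clonal line overexpressing APOL1 G1; EC50 is half-maximal reversal of APOL1-induced cell death. Values are the geometric mean of ≥2 runs on separate days, each run the average of duplicate wells. Where no sigmoidal curve could be fitted, the concentration giving 50% rescue was estimated.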

[3] = system: Trypanosoma brucei Lister 427 VSG221 with APOL1 G2 recombinant protein; test: APOL1 G2 trypanosome cell rescue assay (Example B5); details: Trypanosoma brucei, 20 h, read-out: APOL1 G2 Trypanosome Rescue EC50, Trypanosoma brucei Lister 427 VSG221 with APOL1 G2 recombinant protein, 20 hours, CellTiter-Glo; geometric mean of at least 2 assay runs; † = single assay run
In short: as §1

[4] = system: Trypanosoma brucei Lister 427 VSG221 with APOL1 G1 recombinant protein; test: APOL1 G1 trypanosome cell rescue assay (Example B5); details: Trypanosoma brucei, 20 h, read-out: APOL1 G1 Trypanosome Rescue EC50, Trypanosoma brucei Lister 427 VSG221 with APOL1 G1 recombinant protein, 20 hours, CellTiter-Glo; geometric mean of at least 2 assay runs; † = single assay run
In short: as §1

CN1C(=O)C2(CCN(CCOc3ccc(C(=O)N4CCS(=O)(=O)CC4)c(C(F)(F)F)c3)CC2)c2cc(C#N)ccc21 [Compound 261, 1′-{2-[4-(1,1-dioxo-1λ^6-thiomorpholine-4-carbonyl)-3-(trifluoromethyl)phenoxy]ethyl}-1-methyl-2-oxo-1,2-dihydrospiro[indole-3,4′-piperidine]-5-carbonitrile]
EC50 [1]: 84 nM | EC50 [2]: 167 nM | EC50 [3]: 29.6 nM | EC50 [4]: 100 nM

CS(=O)(=O)c1ccc(OCCN2CCC3(CC2)C(=O)N(CCO)c2ccc(Cl)cc23)cc1C(F)F [Compound 265, 5-chloro-1′-{2-[3-(difluoromethyl)-4-methanesulfonylphenoxy]ethyl}-1-(2-hydroxyethyl)-1,2-dihydrospiro[indole-3,4′-piperidin]-2-one]
EC50 [1]: 67.6 nM | EC50 [2]: 132 nM | EC50 [3]: 23.1 nM | EC50 [4]: 105 nM

CS(=O)(=O)c1ccc(OCCN2CCC3(CC2)C(=O)N(CCO)c2ccc(C#N)cc23)cc1C(F)F [Compound 266, 1′-{2-[3-(difluoromethyl)-4-methanesulfonylphenoxy]ethyl}-1-(2-hydroxyethyl)-2-oxo-1,2-dihydrospiro[indole-3,4′-piperidine]-5-carbonitrile]
EC50 [1]: 236 nM | EC50 [2]: 353 nM | EC50 [3]: 77.1 nM | EC50 [4]: 407 nM

O=C(c1ccc(OCCN2CCC3(CC2)C(=O)Nc2ccc(Cl)cc23)cc1C(F)(F)F)N1CCS(=O)(=O)CC1 [Compound 272, 4-[4-(2-{5-chloro-2-oxo-1,2-dihydrospiro[indole-3,4′-piperidin]-1′-yl}ethoxy)-2-(trifluoromethyl)benzoyl]-1λ^6-thiomorpholine-1,1-dione]
EC50 [1]: 58.9 nM | EC50 [2]: 148 nM | EC50 [3]: 18.9 nM | EC50 [4]: 73.2 nM

CS(=O)(=O)N1CC2(CN(C(=O)c3ccc(OCCN4CCC5(CC4)C(=O)Nc4ccc(Cl)cc45)cc3F)C2)C1 [Compound 273, 5-chloro-1′-[2-(3-fluoro-4-{6-methanesulfonyl-2,6-diazaspiro[3.3]heptane-2-carbonyl}phenoxy)ethyl]-1,2-dihydrospiro[indole-3,4′-piperidin]-2-one]
EC50 [1]: 64.9 nM | EC50 [2]: 206 nM | EC50 [3]: 25.8 nM | EC50 [4]: 71.6 nM

C[C@]1(O)C[C@@H](N2C(=O)CCc3cc(OCCN4CCC5(CC4)C(=O)Nc4ccc(C(F)F)cc45)cnc32)C1 [Compound 274, 5-(difluoromethyl)-1′-[2-({7-oxo-8-[(cis)-3-hydroxy-3-methylcyclobutyl]-5,6,7,8-tetrahydro-1,8-naphthyridin-3-yl}oxy)ethyl]-1,2-dihydrospiro[indole-3,4′-piperidin]-2-one]
EC50 [1]: 59.3 nM | EC50 [2]: 99.9 nM | EC50 [3]: 17.2 nM | EC50 [4]: 58.4 nM

C[C@]1(O)C[C@@H](N2C(=O)CCc3cc(OCCN4CCC5(CC4)C(=O)Nc4ccc(Cl)cc45)cnc32)C1 [Compound 275, 5-chloro-1′-[2-({7-oxo-8-[(cis)-3-hydroxy-3-methylcyclobutyl]-5,6,7,8-tetrahydro-1,8-naphthyridin-3-yl}oxy)ethyl]-1,2-dihydrospiro[indole-3,4′-piperidin]-2-one]
EC50 [1]: 61.2 nM | EC50 [2]: 62.7 nM | EC50 [3]: 21.4 nM | EC50 [4]: 73.6 nM

CS(=O)(=O)C1(c2ncc(OCCN3CCC4(CC3)C(=O)Nc3ccc(Cl)cc34)cn2)COC1 [Compound 276, 5-chloro-1′-(2-{[2-(3-methanesulfonyloxetan-3-yl)pyrimidin-5-yl]oxy}ethyl)-1,2-dihydrospiro[indole-3,4′-piperidin]-2-one]
EC50 [1]: 178 nM | EC50 [2]: 228 nM | EC50 [3]: 55 nM | EC50 [4]: 185 nM

CS(=O)(=O)C1(c2ncc(OCCN3CCC4(CC3)C(=O)Nc3ccc(C#N)cc34)cc2F)CC1 [Compound 283, 1′-(2-{[5-fluoro-6-(1-methanesulfonylcyclopropyl)pyridin-3-yl]oxy}ethyl)-2-oxo-1,2-dihydrospiro[indole-3,4′-piperidine]-5-carbonitrile]
EC50 [1]: 216 nM | EC50 [2]: 211 nM | EC50 [3]: 71.1 nM | EC50 [4]: 235 nM

CC(O)c1ncc(OCCN2CCC3(CC2)C(=O)Nc2ccc(Cl)cc23)cn1 (centres unmarked) [Compound 284, 5-chloro-1′-(2-{[2-(1-hydroxyethyl)pyrimidin-5-yl]oxy}ethyl)-1,2-dihydrospiro[indole-3,4′-piperidin]-2-one]
EC50 [1]: 808 nM | EC50 [2]: 775 nM | EC50 [3]: 235 nM | EC50 [4]: 943 nM

C[C@]1(O)C[C@@H](N2C(=O)OCc3cc(OCCN4CCC5(CC4)C(=O)Nc4ccc(Cl)cc45)cnc32)C1 [Compound 289, 5-chloro-1′-[2-({2-oxo-1-[(cis)-3-hydroxy-3-methylcyclobutyl]-1H,2H,4H-pyrido[2,3-d][1,3]oxazin-6-yl]oxy)ethyl]-1,2-dihydrospiro[indole-3,4′-piperidin]-2-one]
EC50 [1]: 38.2 nM | EC50 [2]: 50.6 nM | EC50 [3]: 15.7 nM | EC50 [4]: 51.9 nM

CC1(O)CN(c2ncc(OCCN3CCC4(CC3)C(=O)Nc3ccc(Cl)cc34)cn2)C1 [Compound 300, 5-chloro-1′-(2-{[2-(3-hydroxy-3-methylazetidin-1-yl)pyrimidin-5-yl]oxy}ethyl)-1,2-dihydrospiro[indole-3,4′-piperidin]-2-one]
EC50 [1]: 375 nM | EC50 [2]: 183 nM | EC50 [3]: 160 nM | EC50 [4]: 543 nM

O=C1Nc2ccc(Cl)cc2C12CCN(CCOc1cnc(N3CC(O)C3)nc1)CC2 [Compound 301, 5-chloro-1′-(2-{[2-(3-hydroxyazetidin-1-yl)pyrimidin-5-yl]oxy}ethyl)-1,2-dihydrospiro[indole-3,4′-piperidin]-2-one]
EC50 [1]: 327 nM | EC50 [2]: 190 nM | EC50 [3]: 134 nM | EC50 [4]: 447 nM

CS(=O)(=O)C1CN(c2ncc(OCCN3CCC4(CC3)C(=O)Nc3ccc(Cl)cc34)cn2)C1 [Compound 302, 5-chloro-1′-(2-{[2-(3-methanesulfonylazetidin-1-yl)pyrimidin-5-yl]oxy}ethyl)-1,2-dihydrospiro[indole-3,4′-piperidin]-2-one]
EC50 [1]: 356 nM | EC50 [2]: 236 nM | EC50 [3]: 142 nM | EC50 [4]: 498 nM

CC(C)(O)c1ncc(OCCN2CCC3(CC2)C(=O)Nc2ccc(Cl)cc23)cn1 [Compound 305, 5-chloro-1′-(2-{[2-(2-hydroxypropan-2-yl)pyrimidin-5-yl]oxy}ethyl)-1,2-dihydrospiro[indole-3,4′-piperidin]-2-one]
EC50 [1]: 187 nM | EC50 [2]: 172 nM | EC50 [3]: 80.4 nM | EC50 [4]: 265 nM

CC1(O)CN(c2nccc3cc(OCCN4CCC5(CC4)C(=O)Nc4ccc(Cl)cc45)cnc23)C1 [Compound 306, 5-chloro-1′-(2-{[8-(3-hydroxy-3-methylazetidin-1-yl)-1,7-naphthyridin-3-yl]oxy}ethyl)-1,2-dihydrospiro[indole-3,4′-piperidin]-2-one]
EC50 [1]: 37 nM | EC50 [2]: 245 nM | EC50 [3]: 15 nM | EC50 [4]: 50.8 nM

O=C1Nc2ccc(Cl)cc2C12CCN(CCOc1cnc3c(N4CC(O)C4)nccc3c1)CC2 [Compound 314, 5-chloro-1′-(2-{[8-(3-hydroxyazetidin-1-yl)-1,7-naphthyridin-3-yl]oxy}ethyl)-1,2-dihydrospiro[indole-3,4′-piperidin]-2-one]
EC50 [1]: 25.4 nM | EC50 [2]: 53.2 nM | EC50 [3]: 11.5 nM | EC50 [4]: 34.9 nM
